# Marks after values point to notes of the source that are not given here.
# Legend:
# [1] = Body weight change / toxicity in MAXF-401 xenograft-bearing mice; assay type: in vivo, NMRI nu/nu mice; conditions: Table 18, CA4P 50, 40 mg/kg/inj. d 0, 10, CCs1 60 d 0, CCs2 60, 40 d 0, 10
# Description: All experiments were conducted according to the guidelines of the German Animal Welfare Act (Tierschutzgesetz). Animal health was examined prior to tumor implantation and randomization to ensure that only animals without any symptoms of disease were selected to enter testing procedures. During the experiments, animals were monitored daily regarding tumor burden, general condition, feed and water supply.
# (§1) All test items were formulated in 0.9% NaCl solution and given as i.v. bolus injection.
# (§2) Measurement of tumor volume and body weight as well as calculations of relative tumor volumes were carries out analgue to the procedure described in 2.3.
# [2] = system: human mammary carcinoma (MAXF-401); assay: Tumor growth inhibition (relative tumor volume) in MAXF-401 xenograft model; assay type: in vivo, human (xenograft in NMRI nu/nu mice)
# Source text: (§3) Mouse strain: NMRI nu/nu, female Animals supplied by: Charles River, Germany Age of mice at implantation: 5-7 weeks
# (§4) The tumor xenografts LXFL-529 and MAXF-401 (Fiebig H H, Berger D P, Dengler W A, Wallbrecher E, Winterhalter B R: Combined In Vitro/In Vivo Test Procedure with Human Tumor Xenografts for New Drug Development. Contrib. Oncol., Basel, Karger, 1992, Vol. 42, pp 321-351) used in this study were derived from surgical specimen from patients treated at the University Hospital in Freiburg, Germany, and directly implanted into nude mice. Prior to surgery, most of the patients had not received any chemotherapy.
# (§5) Tumor fragments were obtained from xenografts in serial passage in nude mice. After removal from donor mice, tumors were cut into fragments (4-5 mm diameter) and placed in PBS until subcutaneous implantation. Recipient mice were anaesthetized by inhalation of isoflurane. A small incision was made in the back and one tumor fragment per animal was transplanted with tweezers. The mice were monitored daily.
# At randomization, tumor-bearing animals were stratified according to tumor volume into treatment and vehicle (control) groups. Only animals carrying one tumor of appropriate size (approximately 50-250 mm^3) were considered for randomization. Mice were randomized when the required number of mice qualified for randomization. […]
# [3] = system: human lung carcinoma LXFL-529; assay: Tumor growth inhibition (relative tumor volume) in LXFL-529 xenograft model; assay type: in vivo, human (xenograft in NMRI nu/nu mice)
# Source text: as §3, §4, §5
# At randomization, tumor-bearing animals were stratified according to tumor volume into treatment and vehicle (control) groups. Only animals carrying one tumor of appropriate size (approximately 50-250 mm^3) were considered for randomization. Mice were randomized when the required number of mice qualified for randomization. The day of randomization was designated as day 0, which was also the first day of dosing.
# as §1, §2
# [4] = Body weight change as sign of toxicity in HT-29 xenograft-bearing mice; assay type: in vivo, NMRI:nu/nu mice
# Description: (§6) […] The application volume was 0.2 ml/20 g mouse body weight. The test compounds, the vehicle controls and the reference compounds were all given intravenously (i.v.).
# (§7) Tumor growth inhibition was used as therapeutic parameter. Additionally, body weight change was determined as signs for toxicity (particularly, potential hematological or gastrointestinal side effects).
# Individual body weights of mice were determined twice weekly and mean body weight per group was related to the initial value in percent (body weight change, BWC).
# On the day of necropsy mice were sacrificed by cervical dislocation and inspected for gross organ changes.
# The loss of body weight is known to be an indicator of gastrointestinal and hepatotoxicity of the tested compound.
# [5] = system: human colon carcinoma HT-29; assay: Tumor growth inhibition (relative tumor volume, T/C) in s.c. HT-29 xenograft model; assay type: in vivo, human (xenograft in NMRI:nu/nu mice)
# Description: The cells were obtained from ATCC and are cryo-preserved within the EPO tumor bank. They were thawed, expanded in vitro and transplanted as cell suspension subcutaneously (s.c.) in female NMRI:nu/nu mice. […] It was therefore selected for this study.
# For experimental use 10^7 tumor cells/mouse from the in vitro passage were transplanted s.c. into the flank of each of 10 mice/group at day 0.
# as §6, §7
# Tumor diameters were measured twice weekly with a caliper. Tumor volumes were calculated according to V=(length×(width)^2)/2. For calculation of the relative tumor volume (RTV) the tumor volumes at each measurement day were related to the day of first treatment. At each measurement day the median and mean tumor volumes per group and also the treated to control (T/C) values in percent were calculated.
# Descriptive statistics were performed on the data of body weight and tumor volume. […] Statistical evaluation was performed with the U-test of Mann and Whitney with a significance level of p≦0.05, using the Windows program […] 6.
# Solutions were prepared immediately before injection by solving the conjugates in saline solution by vortexing in combination with centrifugation until a clear solution of the necessary concentration of the drug was obtained.
compound,measurement,setting,value
"COc1ccc(/C=C\c2cc(OC)c(OC)c(OC)c2)cc1OP(=O)([O-])[O-].[Na+].[Na+] [combretastatin A4 phosphate, Combretastatin A4 phosphate disodium salt]",BWC [%] (at day),[1]; day of value in parentheses,−1.8 (7) %
same,Mortality (at day),[1]; deaths of 4 mice (day),0
same,inhibition of tumor growth,"[2]; MAXF-401 xenografts in nude mice, i.v. bolus",only modest anti-tumor activity
same,RTV T/C (%) Optimum (at day),"[2]; Table 18, CA4P 50, 40 mg/kg/inj. d 0, 10, CCs1 60 d 0, CCs2 60, 40 d 0, 10, day of optimum in parentheses",59.8 (13) %
"COc1cc([C@@H]2c3cc4c(cc3[C@@H](O[C@@H]3O[C@@H]5CO[C@@H](C)O[C@H]5[C@H](O)[C@H]3O)[C@H]3COC(=O)[C@H]23)OCO4)cc(OC)c1O [etoposide, Etoposide]",loss of tumor volume between d7 and d16,"[3]; LXFL-529 xenografts in nude mice, tumor shrinkage after day 7",26%
same,tumors still shrinking or at least stabile,"[3]; LXFL-529 xenografts, at the last day of the experiment",2/5
COc1cc([C@@H]2c3cc4c(cc3[C@@H](O[C@@H]3O[C@@H]5CO[C@@H](C)O[C@H]5[C@H](O)[C@H]3O)[C@H]3COC(=O)[C@H]23)OCO4)cc(OC)c1O [V-16 (Etoposid)],Tumor volume cm^3/d 16,"[3]; Table 19, day 16, treatment d 0, 3, 7, Etoposid 20 mg/kg/inj., CEt1 20, 40, 50 mg/kg/inj.",0.293 +/− 0.137 cm^3
same,RTV T/C (%) Optimum (at day),"[3]; Table 19, optimum at day 16, treatment d 0, 3, 7, Etoposid 20 mg/kg/inj., CEt1 20, 40, 50 mg/kg/inj.",15.5 (16) %
same,RTV T/C (%) re-normalized on day 7,"[3]; Table 19, re-normalized on day 7, treatment d 0, 3, 7, Etoposid 20 mg/kg/inj., CEt1 20, 40, 50 mg/kg/inj.",22.6%
CCc1c2c(nc3ccc(OC(=O)N4CCC(N5CCCCC5)CC4)cc13)-c1cc3c(c(=O)n1C2)COC(=O)[C@]3(O)CC [Irinotecan],Toxic death (day),"[4]; Table 14, number of toxic deaths of 8 mice, Irinotecan 15 mg/kg/inj. d 9-13, conjugates 60 mg/kg/inj. d 9, day of death in parentheses",1
same,Toxic death (at day),"[4]; Table 17, number of toxic deaths per group (day), treatment d 8, Irinotecan 60, CSN21 30, CSN23 60, CSN22 and CIr1-3 80 mg/kg/inj.",1 (20)
same,RTV T/C (%) Optimum (at day),"[5]; Table 14, optimum at day 54, Irinotecan 15 mg/kg/inj. d 9-13, conjugates 60 mg/kg/inj. d 9",48.2%
same,RTV T/C (%) Optimum (at day),"[5]; Table 15, Irinotecan 15 mg/kg/inj. d 8-12, conjugates 60 mg/kg/inj. d 8, day of optimum printed below value (30; CSN10 34; CSN13 13)",27.7* %
same,RTV T/C (%) Optimum (at day),"[5]; Table 16, 60 mg/kg/inj. d 7, day of optimum in parentheses (21-42)",66.3%
